Results reported in US20210300936A1, “PYRAZOLOTRIAZOLOPYRIMIDINE DERIVATIVES AS A2A RECEPTOR ANTAGONIST” (BEIGENE, LTD., priority 2018, published 2021).

Target: human A2A receptor (A2AR) (Homo sapiens, UniProt P29274)
Experiment: Luciferase reporter assay (HEK293-A2AR-luc2p/CRE/Hygro cells, 3 nM CGS21680)
Type: cell-based
Conditions: 3 nM CGS21680, 5 h incubation
Description: HEK293 cells were maintained in Dulbecco's modified Eagle's medium (DMEM, Gibco) supplemented with 10% fetal bovine serum (FBS, Thermo Scientific), 100 units/mL penicillin (Gibco), and 0.1 mg/mL streptomycin (Gibco) in a humidified 37° C. environment with 5% C02. Plasmid encoding wild-type human A2A receptor (A2AR) (in pcDNA3.1) was synthesized by Genscript (Nanjing, China). Transfection of the plasmids was performed in 6-well plates with 4×10^5 cells using Lipofectamin 2000 (ThermoFisher Scientific) according to the instruction of the manufacturer. Cell clones that stably express A2AR were established and maintained in the same complete medium as the HEK293 cells in addition of G-418 (Gibico). Expression level of A2AR in each single cell clone was determined using immunoblotting and FACS method. HEK293-A2AR stable cells were then transfected with pGL4.29[luc2P/CRE/Hygro] (Promega) luciferase reporter plasmid for establishing the HEK293-A2AR-luc2p/CRE/Hygro stable cell line.
HEK293-A2AR-luc2p/CRE/Hygro cells were seeded at a density of 5,000 cells/well in DMEM with 1% FBS and 1 U/mL adenosine deaminase (ADA) (Sigma). After 18 h, the cells were treated with 3 nM CGS21680 plus a series dilution of A2AR antagonist, the compounds disclosed herein at the concentration of 0.1˜10000 nM, prepared in DMEM with 1% FBS. After 5 h incubation, the luciferase activity in cells were measured using the Bright-Glo Luciferase Assay System (Promega) according to manufacturer's instructions. The luminescence signal was measured using a PHERAstar FS plate reader (BMG Labtech). […] Maximal luminescence intensity was determined in the presence of 3 nM CGS21680 and was set as 100%. The IC50 value was calculated from a dose dependent inhibition curve across the range of compound concentrations.

human A2A receptor (A2AR), sequence (P29274 whole entry): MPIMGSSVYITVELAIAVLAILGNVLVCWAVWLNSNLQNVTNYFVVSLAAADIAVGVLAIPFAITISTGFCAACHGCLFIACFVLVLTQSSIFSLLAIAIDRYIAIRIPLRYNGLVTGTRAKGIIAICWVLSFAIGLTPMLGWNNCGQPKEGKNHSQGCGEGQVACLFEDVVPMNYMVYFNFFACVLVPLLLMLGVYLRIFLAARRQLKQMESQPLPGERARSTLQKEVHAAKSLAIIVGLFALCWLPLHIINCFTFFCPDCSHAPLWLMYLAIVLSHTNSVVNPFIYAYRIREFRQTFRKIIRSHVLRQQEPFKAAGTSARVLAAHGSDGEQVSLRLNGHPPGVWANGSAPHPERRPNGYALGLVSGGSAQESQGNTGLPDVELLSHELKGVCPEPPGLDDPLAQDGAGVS

| SMILES | IC50 |
| --- | --- |
| COCCOc1ccc(N2CCN(C(=O)C(Cc3ccccc3)n3cc4c(nc(N)n5nc(-c6ccco6)nc45)n3)CC2)cc1 (centres unmarked) [Compound C20, 2-(5-amino-2-(furan-2-yl)-8H-pyrazolo[4,3-e][1,2,4]triazolo[1,5-c]pyrimidin-8-yl)-1-(4-(4-(2-methoxyethoxy)phenyl)piperazin-1-yl)-3-phenylpropan-1-one] | 2070 nM |
| CC(C(=O)N1CCN(c2cccc(C(=O)NC3CCCCC3)c2)CC1)(c1ccccc1)n1ncc2c1nc(N)n1nc(-c3ccco3)nc21 (centres unmarked) [Compound A90, 2-(5-amino-2-(furan-2-yl)-7H-pyrazolo[4,3-e][1,2,4]triazolo[1,5-c]pyrimidin-7-yl)-2-phenyl-1-(4-(3-(cyclohexanaminocarbonyl)phenyl)piperazin-1-yl)propan-1-one] | 14.1 nM |
| CN1CCN(CCCOc2ccc(N3CCN(C(=O)[C@](C)(c4ccccc4)n4ncc5c4nc(N)n4nc(-c6ccco6)nc54)CC3)cc2)CC1 [Compound A82a, (S)-2-(5-amino-2-(furan-2-yl)-7H-pyrazolo[4,3-e][1,2,4]triazolo[1,5-c]pyrimidin-7-yl)-1-(4-(4-(3-(4-methylpiperazin-1-yl)propoxy)phenyl)piperazin-1-yl)-2-phenylpropan-1-one] | 12.2 nM |
| CCCCC(C(=O)N1CCN(c2ccc(OCCOC)cc2)CC1)n1cc2c(nc(N)n3nc(-c4ccco4)nc23)n1 (centres unmarked) [Compound C10, 2-(5-amino-2-(furan-2-yl)-8H-pyrazolo[4,3-e][1,2,4]triazolo[1,5-c]pyrimidin-8-yl)-1-(4-(4-(2-methoxyethoxy)phenyl)piperazin-1-yl)hexan-1-one] | 126 nM |
| CCCC(C(=O)N1CCN(c2ccc(OCCOC)cc2)CC1)n1cc2c(nc(N)n3nc(-c4ccco4)nc23)n1 (single isomer, unassigned) [Compound C5a] | 55 nM |
| Nc1nc2c(cnn2C(C(=O)N2CCc3ccccc3C2)c2ccccc2)c2nc(-c3ccco3)nn12 (single isomer, unassigned) [Compound B3a] | 21.6 nM |
| COCCOc1ccc(N2CCN(C(=O)C(C)(Cc3ccccc3)n3ncc4c3nc(N)n3nc(-c5ccco5)nc43)CC2)cc1 (centres unmarked) [Compound A97, 2-(5-amino-2-(furan-2-yl)-7H-pyrazolo[4,3-e][1,2,4]triazolo[1,5-c]pyrimidin-7-yl)-1-(4-(4-(2-methoxyethoxy)phenyl)piperazin-1-yl)-2-methyl-3-phenylpropan-1-one] | 335 nM |
| CC(C(=O)N1CCN(c2ccc(C(=O)NC3CCCCC3)cc2)CC1)(c1ccccc1)n1ncc2c1nc(N)n1nc(-c3ccco3)nc21 (centres unmarked) [Compound A98, 4-(4-(2-(5-amino-2-(furan-2-yl)-7H-pyrazolo[4,3-e][1,2,4]triazolo[1,5-c]pyrimidin-7-yl)-2-phenylpropanoyl)piperazin-1-yl)-N-cyclohexylbenzamide] | 7.2 nM |
| CCC(C(=O)N1CCN(c2ccc(OCCOC)cc2)CC1)n1cc2c(nc(N)n3nc(-c4ccco4)nc23)n1 (centres unmarked) [Compound C4, 2-(5-amino-2-(furan-2-yl)-8H-pyrazolo[4,3-e][1,2,4]triazolo[1,5-c]pyrimidin-8-yl)-1-(4-(4-(2-methoxyethoxy)phenyl)piperazin-1-yl)butan-1-one] | 140 nM |
| CN(C)C(=O)C(C)(c1ccccc1)n1ncc2c1nc(N)n1nc(-c3ccco3)nc21 (centres unmarked) [Compound B20, 2-(5-amino-2-(furan-2-yl)-7H-pyrazolo[4,3-e][1,2,4]triazolo[1,5-c]pyrimidin-7-yl)-N,N-dimethyl-2-phenylpropanamide] | 20 nM |
| COCCOCCOc1ccc(N2CCN(C(=O)C(COC)n3ncc4c3nc(N)n3nc(-c5ccco5)nc43)CC2)cc1 (centres unmarked) [Compound A27, 2-(5-amino-2-(furan-2-yl)-7H-pyrazolo[4,3-e][1,2,4]triazolo[1,5-c]pyrimidin-7-yl)-3-methoxy-1-(4-(4-(2-(2-methoxyethoxy)ethoxy)phenyl)piperazin-1-yl)propan-1-one] | 39.4 nM |
| CCC(C(=O)N1CCN(c2ccc(OCCOC)cc2)CC1)(c1ccccc1)n1ncc2c1nc(N)n1nc(-c3ccco3)nc21 (centres unmarked) [Compound A84, 2-(5-amino-2-(furan-2-yl)-7H-pyrazolo[4,3-e][1,2,4]triazolo[1,5-c]pyrimidin-7-yl)-1-(4-(4-(2-methoxyethoxy)phenyl)piperazin-1-yl)-2-phenylbutan-1-one] | 28.3 nM |
| CCCC(C(=O)N1CCN(c2ccc(F)cc2F)CC1)n1cc2c(nc(N)n3nc(-c4ccco4)nc23)n1 (centres unmarked) [Compound C21, 2-(5-amino-2-(furan-2-yl)-8H-pyrazolo[4,3-e][1,2,4]triazolo[1,5-c]pyrimidin-8-yl)-1-(4-(2,4-difluorophenyl)piperazin-1-yl)pentan-1-one] | 100 nM |

Stronger by IC50, values ahead:

| IC50 | SMILES |
| --- | --- |
| 6.8 nM | C[C@](C(=O)N1CCN(c2ccc(OCCCN3CCCC3)cc2)CC1)(c1ccccc1)n1ncc2c1nc(N)n1nc(-c3ccco3)nc21 [Compound A79b, (R)-2-(5-amino-2-(furan-2-yl)-7H-pyrazolo[4,3-e][1,2,4]triazolo[1,5-c]pyrimidin-7-yl)-2-phenyl-1-(4-(4-(3-(pyrrolidin-1-yl)propoxy)phenyl)piperazin-1-yl)propan-1-one] |
| 4.6 nM | CCCCC(C(=O)N1CCN(c2ccc(OCCOCCOC)cc2)CC1)n1ncc2c1nc(N)n1nc(-c3ccco3)nc21 (single isomer, unassigned) [Compound A11a] |
| 2.9 nM | COCCOc1ccc(N2CCN(C(=O)C(c3ccccc3)n3ncc4c3nc(N)n3nc(-c5ccco5)nc43)CC2)cc1 (centres unmarked) [Compound A13, 2-(5-amino-2-(furan-2-yl)-7H-pyrazolo[4,3-e][1,2,4]triazolo[1,5-c]pyrimidin-7-yl)-1-(4-(4-(2-methoxyethoxy)phenyl)piperazin-1-yl)-2-phenylethan-1-one] |
| 4.4 nM | CCCC(C(=O)N1CCN(c2ccc(OCCOC)cc2F)CC1)n1ncc2c1nc(N)n1nc(-c3ccco3)nc21 (centres unmarked) [Compound A24, 2-(5-amino-2-(furan-2-yl)-7H-pyrazolo[4,3-e][1,2,4]triazolo[1,5-c]pyrimidin-7-yl)-1-(4-(2-fluoro-4-(2-methoxyethoxy)phenyl)piperazin-1-yl)pentan-1-one] |
| 4.3 nM | CC(C(=O)N1CCN(c2ccc(OCCN3CCOCC3)cc2)CC1)(c1ccccc1)n1ncc2c1nc(N)n1nc(-c3ccco3)nc21 (centres unmarked) [Compound A80, 2-(5-amino-2-(furan-2-yl)-7H-pyrazolo[4,3-e][1,2,4]triazolo[1,5-c]pyrimidin-7-yl)-1-(4-(4-(2-morpholinoethoxy)phenyl)piperazin-1-yl)-2-phenylpropan-1-one] |
| 6.5 nM | COCCOc1ccc(N2CCN(C(=O)C(Cc3ccccc3)n3ncc4c3nc(N)n3nc(-c5ccco5)nc43)CC2)cc1 (centres unmarked) [Compound A19, 2-(5-amino-2-(furan-2-yl)-7H-pyrazolo[4,3-e][1,2,4]triazolo[1,5-c]pyrimidin-7-yl)-1-(4-(4-(2-methoxyethoxy)phenyl)piperazin-1-yl)-3-phenylpropan-1-one] |
| 3.8 nM | CC(C(=O)N1CCN(c2ccccc2C(=O)NC2CCCCC2)CC1)(c1ccccc1)n1ncc2c1nc(N)n1nc(-c3ccco3)nc21 (centres unmarked) [Compound A94, 2-(4-(2-(5-amino-2-(furan-2-yl)-7H-pyrazolo[4,3-e][1,2,4]triazolo[1,5-c]pyrimidin-7-yl)-2-phenylpropanoyl)piperazin-1-yl)-N-cyclohexylbenzamide] |
